Patent US20240002395A1, “COMPOUNDS AND THEIR USE FOR TREATING NEUROPATHIC PAIN” (The Johns Hopkins University, priority 2020, published 2024)

Experiments:
[1] = target: T1, human MrgprX1 (Homo sapiens, UniProt Q96LB2); assay: MrgprX1 positive allosteric modulator (PAM) calcium FLIPR assay in HEK293 cells; assay type: cell-based; settings: PAM activity in presence of EC20 concentration of BAM8-22; HEK293 cells stably transfected with human MrgprX1
T1 construct: expressed in transfected cells
Protocol: HEK293 cells stably transfected with human MrgprX1 were plated onto poly-D-lysine-coated, black-walled, 96-well plates at a seeding density of 12,000 cells/well and grown for two days. On the day of the experiment, cells were incubated with Fluo-4 AM 2 μM, pluronic acid 0.04% and Trypan Red 1% in HBSS (pH 7.4, 100 μL) for 1 h at 37° C. For each different passage of cells, a BAM8-22 dose response was first conducted and the BAM8-22 EC20 determined. Test compounds were then dissolved and serially diluted in DMSO, further diluted with Trypan Red (1%)-containing HBSS (50 μL) and added to cells (0.33% DMSO concentration by volume) to first monitor for agonist activity. After 2.5 min, BAM8-22 at 4-fold EC20 (50 μL) was added to cells (0.25% DMSO concentration by volume) and the cells imaged on the FLIPR for an additional 2 minutes to monitor the test compounds for PAM activity. Finally, data were normalized to fluorescence signals obtained from 250 nM of BAM8-22 (maximum) and BAM8-22 at its EC20 concentration (minimum). EC50 of a test compound was defined as the concentration required to provoke a response halfway between the minimum and maximum response in the presence of EC20 concentration of BAM8-22.

T1 sequence (Q96LB2 whole entry): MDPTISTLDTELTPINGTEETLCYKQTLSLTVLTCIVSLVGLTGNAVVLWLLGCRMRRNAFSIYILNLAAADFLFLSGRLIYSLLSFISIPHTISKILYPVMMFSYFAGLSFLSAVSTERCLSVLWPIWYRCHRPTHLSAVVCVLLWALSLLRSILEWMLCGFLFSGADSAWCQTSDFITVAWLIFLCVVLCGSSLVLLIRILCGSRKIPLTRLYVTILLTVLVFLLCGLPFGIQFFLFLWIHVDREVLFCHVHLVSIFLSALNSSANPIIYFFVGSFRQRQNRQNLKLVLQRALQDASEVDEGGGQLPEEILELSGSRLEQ

Structure (SMILES) | melting point | EC50 [1]
CC(C)(C)c1sc2ncnc(Oc3ccc([N+](=O)[O-])cc3OC(F)(F)F)c2c1-c1ccc(Cl)c(Cl)c1 [Compound 7f, 6-tert-butyl-5-(3,4-dichlorophenyl)-4-(4-nitro-2-(trifluoromethoxy)phenoxy)thieno[2,3-d]pyrimidine] |  | > 100000 nM
Cc1ccccc1Oc1ncnc2oc(-c3ccccc3)cc12 [B, 6-Phenyl-4-(o-tolyloxy)furo[2,3-d]pyrimidine, reference compound] |  | 1000 nM
CC(C)(C)c1sc2ncnc(Oc3ccc(OC(F)(F)F)cc3)c2c1-c1ccc(Cl)c(Cl)c1 [Compound 7e, 6-tert-butyl-5-(3,4-dichlorophenyl)-4-(4-(trifluoromethoxy)phenoxy)thieno[2,3-d]pyrimidine] | 103 °C | > 100000 nM
CC(C)(C)c1sc2ncnc(OC3CC3)c2c1-c1ccc(Cl)c(Cl)c1 [Compound 7x, 6-tert-butyl-4-cyclopropoxy-5-(3,4-dichlorophenyl)thieno[2,3-d]pyrimidine] | 172 °C | > 10000 nM
CC(C)(C)c1sc2ncnc(Oc3ccccc3)c2c1-c1ccc(Cl)c(Cl)c1 [Compound 7l, 6-tert-butyl-5-(3,4-dichlorophenyl)-4-phenoxythieno[2,3-d]pyrimidine] | 148 °C | 600 nM
CC(=O)c1ccccc1Oc1ncnc2sc(C(C)(C)C)c(-c3ccc(Cl)c(Cl)c3)c12 [Compound 7u, 1-(2-(6-tert-butyl-5-(3,4-dichlorophenyl)thieno[2,3-d]pyrimidin-4-yloxy)phenyl)ethanone] | 60 °C | 3000 nM
CC(C)Oc1ncnc2sc(C(C)(C)C)c(-c3ccc(Cl)c(Cl)c3)c12 [Compound 7w, 6-tert-butyl-5-(3,4-dichlorophenyl)-4-isopropoxythieno[2,3-d]pyrimidine] | 165 °C | > 10000 nM
CN(C)C(=O)COc1ncnc2scc(-c3ccc(F)cc3)c12 [Compound A, 2-((5-(4-Fluorophenyl)thieno[2,3-d]pyrimidin-4-yl)oxy)-N,N-dimethylacetamide, reference compound] |  | > 100000 nM
Cc1ccc(Oc2ncnc3sccc23)cc1 [E, 4-(p-Tolyloxy)thieno[2,3-d]pyrimidine, reference compound] |  | 900 nM
CC(C)(C)c1sc2ncnc(Oc3cccnc3N)c2c1-c1ccc(Cl)c(Cl)c1 [Compound 7j, 3-(6-tert-butyl-5-(3,4-dichlorophenyl)thieno[2,3-d]pyrimidin-4-yloxy)pyridin-2-amine] | 207 °C | 30000 nM
COc1ncccc1Oc1ncnc2sc(C(C)(C)C)c(-c3ccc(Cl)c(Cl)c3)c12 [Compound 7i, 6-tert-butyl-5-(3,4-dichlorophenyl)-4-(2-methoxypyridin-3-yloxy)thieno[2,3-d]pyrimidine] | 173 °C | 
CC(C)(C)c1sc2ncnc(Oc3ccccc3F)c2c1-c1ccc(F)c(F)c1 [Compound 7aj, 6-tert-butyl-5-(3,4-difluorophenyl)-4-(2-fluorophenoxy)thieno[2,3-d]pyrimidine] | 171 °C | 
Cc1cccc(Oc2ncnc3oc(-c4ccccc4)cc23)c1C [C, 4-(2,3-Dimethylphenoxy)-6-phenylfuro[2,3-d]pyrimidine, reference compound] |  | 70000 nM
CN1CCCC(Oc2ncnc3sc(C(C)(C)C)c(-c4ccc(Cl)c(Cl)c4)c23)C1 (centres unmarked) [Compound 7ab, 6-tert-butyl-5-(3,4-dichlorophenyl)-4-(1-methylpiperidin-3-yloxy)thieno[2,3-d]pyrimidine] |  | 6000 nM

Other lines, results leading:

melting point | EC50 [1] | Structure (SMILES)
66 °C | 300 nM | CC(C)(C)c1sc2ncnc(Oc3c(Cl)cccc3OC(F)(F)F)c2c1-c1ccc(Cl)c(Cl)c1 [Compound 7c, 6-tert-butyl-4-(2-chloro-6-(trifluoromethoxy)phenoxy)-5-(3,4-dichlorophenyl)thieno[2,3-d]pyrimidine]
126 °C | 30 nM | CC(C)(C)c1sc2ncnc(Oc3c(F)cccc3OC(F)(F)F)c2c1-c1cccc(Cl)c1 [Compound 7ar, 6-tert-butyl-5-(3-chlorophenyl)-4-(2-fluoro-6-(trifluoromethoxy)phenoxy)thieno[2,3-d]pyrimidine]
180 °C | 100 nM | CC(C)(C)c1sc2ncnc(Oc3c(F)cccc3F)c2c1-c1cccc(F)c1 [Compound 7aw, 6-tert-butyl-4-(2,6-difluorophenoxy)-5-(3-fluorophenyl)thieno[2,3-d]pyrimidine]
136 °C | 80 nM | CC(C)(C)c1sc2ncnc(Oc3ccccc3OC(F)(F)F)c2c1-c1ccc(Cl)cc1 [Compound 7an, 6-tert-butyl-5-(4-chlorophenyl)-4-(2-(trifluoromethoxy)phenoxy)thieno[2,3-d]pyrimidine]
176 °C | 30 nM | CC(C)(C)c1sc2ncnc(Oc3c(F)cccc3F)c2c1-c1ccc(Cl)cc1 [Compound 7ap, 6-tert-butyl-5-(4-chlorophenyl)-4-(2,6-difluorophenoxy)thieno[2,3-d]pyrimidine]
165 °C | 200 nM | CC(C)(C)c1sc2ncnc(Sc3ccccc3OC(F)(F)F)c2c1-c1ccc(Cl)c(Cl)c1 [Compound 7ax, 6-tert-butyl-5-(3,4-dichlorophenyl)-4-(2-(trifluoromethoxy)phenylthio)thieno[2,3-d]pyrimidine]
194 °C | 300 nM | CC(C)(C)c1sc2ncnc(Oc3ccccc3F)c2c1-c1ccc(F)cc1 [Compound 7au, 6-tert-butyl-4-(2-fluorophenoxy)-5-(4-fluorophenyl)thieno[2,3-d]pyrimidine]
159 to 161 °C | 100 nM | CC(C)(C)c1oc2ncnc(Oc3c(F)cccc3OC(F)(F)F)c2c1C(=O)N1CCCCC1 [Compound 7bk, (6-(tert-butyl)-4-(2-fluoro-6-(trifluoromethoxy)phenoxy)furo[2,3-d]pyrimidin-5-yl)(piperidin-1-yl)methanone]
 | 500 nM | CC(C)(C)c1sc2ncnc(Oc3ccccc3C#N)c2c1-c1ccc(Cl)c(Cl)c1 [Compound 7v, 2-(6-tert-butyl-5-(3,4-dichlorophenyl)thieno[2,3-d]pyrimidin-4-yloxy)benzonitrile]
 | 60 nM | CCOC(=O)c1c(C(C)(C)C)sc2ncnc(Oc3c(F)cccc3OC(F)(F)F)c12 [Compound 7be, Ethyl 6-(tert-butyl)-4-(2-fluoro-6-(trifluoromethoxy)phenoxy)thieno[2,3 d]pyrimidine-5-carboxylate]
 | 100 nM | CC1CCCCC1Oc1ncnc2sc(C(C)(C)C)c(-c3ccc(Cl)c(Cl)c3)c12 (mixture of isomers) [Compound 7ac, 6-tert-butyl-5-(3,4-dichlorophenyl)-4-(2-methylcyclohexyloxy)thieno[2,3-d]pyrimidine]
 | 70 nM | CC1CCCN1c1c(C(C)(C)C)sc2ncnc(Oc3c(F)cccc3OC(F)(F)F)c12 (centres unmarked) [Compound 7bg, 6-(tert-butyl)-4-(2-fluoro-6-(trifluoromethoxy)phenoxy)-5-(2-methylpyrrolidin-1-yl)thieno[2,3-d]pyrimidine]
 | 400 nM | CC(C)(C)c1sc2ncnc(OC3CCCCCC3)c2c1-c1ccc(Cl)c(Cl)c1 [Compound 7ae, 6-tert-butyl-4-(cycloheptyloxy)-5-(3,4-dichlorophenyl)thieno[2,3-d]pyrimidine]
